Experiments:
[1] = biological target: T1, human recombinant TDO2 enzyme (Homo sapiens, UniProt P48775); test: Assay for TDO2 enzymatic activity determination; type: biochemical; conditions: human recombinant TDO2, L-Trp 1 mM, kynurenine absorbance at 480 nm
T1 construct: made in house
Method: To measure the TDO2 activity, the procedure described in Dolusic et al. J. Med. Chem.; 2011, 54, […] was adapted: the reaction mixture contained (final concentrations) potassium phosphate buffer (50 mM, pH 7.5), ascorbic acid (0.25 M), methylene blue (0.125 μM), catalase (40 units/mL, from bovine liver, Sigma), and human recombinant TDO2 enzyme (prepared as described in Dolusic et al. J. Med. Chem.; 2011, 54, 5320-5334; 0.9 μg) without or with the compounds of the present invention at the indicated concentrations (total volume 112.5 μL). The reaction was initiated by the addition of 37.5 μL of L-Trp (final concentration 1 mM) at room temperature. The reaction was conducted at room temperature during one hour and stopped by the addition of 30 μL of 30% (w/v) trichloroacetic acid.
To convert N-formylkynurenine into kynurenine, the reaction mixture was incubated at 65° C. for 30 min. Then 150 μL of the reaction mixture was mixed with 120 μL of 2.5% (w/v) 4-(dimethylamino)-benzaldehyde in acetic acid and incubated for 5 min at room temperature. Kynurenine concentrations were determined by measuring the absorbance at 480 nm. A standard curve was made with pure kynurenine. The TDO activity was measured as described above using ten serial concentrations of the compounds of the present invention. Data were fitted using the Prism™ software (GraphPad Software, Inc.) using standard parameters.

[2] = biological target: T2, murine mastocytoma P815 cells overexpressing hTDO2 (Homo sapiens, UniProt P48775); test: Cellular assay for TDO2 activity, hTDO2-overexpressing P815 cells; type: cell-based; conditions: P815 cells overexpressing hTDO2, overnight incubation, kynurenine in supernatant
T2 construct: expressed in transfected cells; host or cells: murine mastocytoma P815 cells
Method: The assay (adapted from Pilotte L et al., Proc Natl Acad Sci USA, 2012, 109(7), 2497-502) was performed in 96-well flat bottom plates seeded with murine mastocytoma P815 cells overexpressing hTDO2 (prepared as described in Pilotte et al., PNAS, 2012, 109(7), 2497-2502), at a concentration of 5×10^4 cells/well in a final volume of 200 μL. To determine TDO or IDO activity, the cells were incubated overnight at 37° C. at 5% CO2 in IMDM (Invitrogen) supplemented with 2% FBS and 2% penicillin/streptomycin in the presence of the compounds of the present invention, at different concentrations. The cells may be obtained from the American Type Cuylture Collecion [ATCC® TIB-64™ or commercially, e.g., from Sigma-Aldrich or Life Technologies.]
The plates were then centrifuged 5 min at 1000 rpm, and 100 μL of the supernatant were collected in a conical plate, 30 uL of TCA 30% were added and a further centrifugated at 3000×g for 10 minutes. 100 μL of the supernatant were collected in a flat bottomed plate and 100 μL of 2% (w/v) 4-(dimethylamino)-benzaldehyde in acetic acid and incubated for 5 min at room temperature. Kynurenine concentrations were determined by measuring the absorbance at 480 nm. A standard curve was made with pure kynurenine. The TDO activity was measured as described above using ten serial concentrations of the compounds of the present invention. Data were fitted using the Prism™ software (GraphPad Software, Inc.) using standard parameters.

[3] = biological target: T3, human glioblastoma A172 cells, naturally expressing hTDO2 (Homo sapiens, UniProt P48775); test: Cellular assay for TDO2 activity, A172 cells; type: cell-based; conditions: overnight incubation, kynurenine in supernatant
T3 construct: human glioblastoma A172 cells, naturally expressing hTDO2; endogenous in cells; host or cells: human glioblastoma A172 cells (ATCC CRL-1620)
Summary of the method: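 A172 human glioblastoma cells naturally expressing TDO2, seeded at 1.25×10^4 cells/well, were incubated overnight at 37 °C in IMDM with 2% FBS and ten serial compound concentrations. Supernatant kynurenine, after TCA precipitation and Ehrlich's reagent, was read at 480 nm against a kynurenine standard curve; data curve-fitted.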

TDO2 = test: Pharmacodynamic assay for TDO2 in vivo activity: increase of blood Tryptophan levels in mice; set-up: species or system mouse; conditions: female BALB/c mice, 2 hours; for increase of circulating Tryptophan compared to vehicle-treated controls: p<0.0001
Method: The compounds of the present invention increase the amount of Tryptophan in mouse blood. Briefly, female BALB/c mice (7-8 weeks old) were treated with either a suspension of one of the compounds of the present invention in 0.5% hydroxypropyl methyl cellulose (HPMC) K4M (4000 mPa·s (cPs), Methocell™, Dow chemical)/0.25% Tween® 20 (Signma Aldrich) at different doses (30, 60 and 100 mg/kg), or with a vehicle control (0.5% HPMC K4M/0.25% Tween 20), by the oral route by gavage (dosing volume 5 mL/kg, 10 mice per group). After two hours, blood was harvested, plasma was prepared and the amount of Tryptophan present was determined by LC-MS-MS (HPLC column Unison UK-Phenyl, 75×4.6, 3 μm, flow rate 0.8 mL/min, 8 minutes gradient from 95% water+0.1% formic acid/5% Acetonitrile+0.1% formic acid to 5% water+0.1% formic acid/95% Acetonitrile+0.1% formic acid, retention time 2.4 min; API4000 MS-MS system from AB Sciex, ESI+ mode, parent ion 205.1, daughter ion 146.1).

T3 sequence (P48775 whole entry): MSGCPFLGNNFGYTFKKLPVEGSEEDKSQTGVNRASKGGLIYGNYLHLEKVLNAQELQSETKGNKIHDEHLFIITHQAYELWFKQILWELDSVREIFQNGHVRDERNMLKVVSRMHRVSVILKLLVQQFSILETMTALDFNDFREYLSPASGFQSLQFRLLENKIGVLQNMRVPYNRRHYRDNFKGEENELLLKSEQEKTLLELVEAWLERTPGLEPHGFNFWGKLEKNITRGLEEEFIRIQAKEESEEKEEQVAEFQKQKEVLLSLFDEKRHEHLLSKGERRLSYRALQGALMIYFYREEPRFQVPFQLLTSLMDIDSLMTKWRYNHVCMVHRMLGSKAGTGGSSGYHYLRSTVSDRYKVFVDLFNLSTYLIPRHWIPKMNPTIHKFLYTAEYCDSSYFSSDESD
T2 sequence (P48775 whole entry): as above
T1 sequence (P48775 whole entry): as above

IC50 [2] [nM]	IC50 [3] [nM]	SMILES	other results
150		Cc1nc2cc(-c3c[nH]c4cc(F)ccc34)ccc2[nH]1 [Compound 26, 5-(6-fluoro-1H-indol-3-yl)-2-methyl-1H-benzo[d]imidazole]	IC50 [1]: 388 nM
203	284	Fc1ccc2c(-c3ccc4nc(CN5CCOCC5)oc4c3)c[nH]c2c1 [Compound 66, 6-(6-fluoro-1H-indol-3-yl)-2-(morpholinomethyl)benzo[d]oxazole]	
210	335	CN1CCN(Cc2nc3cc(-c4c[nH]c5cc(F)ccc45)ccc3o2)CC1 [Compound 62, 5-(6-fluoro-1H-indol-3-yl)-2-((4-methylpiperazin-1-yl)methyl)benzo[d]oxazole]	
154	178	Fc1ccc2c(-c3ccc4cn[nH]c4c3)c[nH]c2c1 [Compound 1, 6-(6-fluoro-1H-indol-3-yl)-1H-indazole]	IC50 [1]: 586 nM
92	143	CC(=O)NCc1nc2ccc(-c3c[nH]c4cc(F)ccc34)cc2o1 [Compound 75, N-((6-(6-fluoro-1H-indol-3-yl)benzo[d]oxazol-2-yl)methyl)acetamide]	
246	265	Fc1ccc2c(-c3ccc4nn(CC5CCNCC5)cc4c3)c[nH]c2c1 [Compound 77, 5-(6-fluoro-1H-indol-3-yl)-2-(piperidin-4-ylmethyl)-2H-indazole]	
82	149	Fc1ccc2c(-c3ccc4nc(CN5CCNCC5)oc4c3)c[nH]c2c1 [Compound 78, 6-(6-fluoro-1H-indol-3-yl)-2-(piperazin-1-ylmethyl)benzo[d]oxazole]	
505	512	CS(=O)(=O)CCc1nc2cc(-c3c[nH]c4cc(F)ccc34)ccc2[nH]1 [Compound 38, 5-(6-fluoro-1H-indol-3-yl)-2-(2-(methylsulfonyl)ethyl)-1H-benzo[d]imidazole]	

The next lines start with the compound.

SMILES	IC50 [2] [nM]	IC50 [3] [nM]	other results
Fc1ccc2c(-c3ccc4nc(CCN5CCNCC5)oc4c3)c[nH]c2c1 [Compound 110, 6-(6-fluoro-1H-indol-3-yl)-2-(2-(piperazin-1-yl)ethyl)benzo[d]oxazole]		239	Tryptophan concentration in plasma (average ± standard error of the mean) (TDO2; 30 mg/kg oral gavage): 125 ± 7 µM; increase of circulating Tryptophan compared to vehicle-treated controls (TDO2; 30 mg/kg oral gavage): 46%; Tryptophan concentration in plasma (average ± standard error of the mean) (TDO2; 60 mg/kg oral gavage): 130.3 µM; increase of circulating Tryptophan compared to vehicle-treated controls (TDO2; 60 mg/kg oral gavage): 52%; Tryptophan concentration in plasma (average ± standard error of the mean) (TDO2; 100 mg/kg oral gavage): 153.2 µM; increase of circulating Tryptophan compared to vehicle-treated controls (TDO2; 100 mg/kg oral gavage): 78%; IC50 [1]: 1630 nM
Fc1ccc2c(-c3ccc4ocnc4c3)c[nH]c2c1 [Compound 47, 5-(6-fluoro-1H-indol-3-yl)benzo[d]oxazole]	100	479	
CS(=O)(=O)NCc1nc2ccc(-c3c[nH]c4cc(F)ccc34)cc2o1 [Compound 74, N-((6-(6-fluoro-1H-indol-3-yl)benzo[d]oxazol-2-yl)methyl)methanesulfonamide]	72	152	
NC(=O)Cn1c(=O)oc2cc(-c3c[nH]c4cc(F)ccc34)ccc21 [Compound 64, 2-(6-(6-fluoro-1H-indol-3-yl)-2-oxobenzo[d]oxazol-3(2H)-yl)acetamide]	176	501	
CN1CCN(Cc2nc3ccc(-c4c[nH]c5cc(F)ccc45)cc3o2)CC1 [Compound 68, 6-(6-fluoro-1H-indol-3-yl)-2-((4-methylpiperazin-1-yl)methyl)benzo[d]oxazole]	78	218	
CS(=O)(=O)NCc1nc2cc(-c3c[nH]c4cc(F)ccc34)ccc2o1 [Compound 70, N-((5-(6-fluoro-1H-indol-3-yl)benzo[d]oxazol-2-yl)methyl)methanesulfonamide]	251	435	
CN1CCN(Cc2nc3ccc(-c4c[nH]c5cc(F)ccc45)cc3[nH]2)CC1 [Compound 33, 6-(6-fluoro-1H-indol-3-yl)-2-((4-methylpiperazin-1-yl)methyl)-1H-benzo[d]imidazole]	635		
CS(=O)(=O)N1CCN(Cc2nc3cc(-c4c[nH]c5cc(F)ccc45)ccc3[nH]2)CC1 [Compound 34, 5-(6-fluoro-1H-indol-3-yl)-2-((4-(methylsulfonyl)piperazin-1-yl)methyl)-1H-benzo[d]imidazole]	863		
CN(C)Cc1nc2ccc(-c3c[nH]c4cc(F)ccc34)cc2[nH]1 [Compound 28, 1-(6-(6-fluoro-1H-indol-3-yl)-1H-benzo[d]imidazol-2-yl)-N,N-dimethylmethanamine]	1450		
CC(=O)NCc1nc2ccc(-c3c[nH]c4cc(F)ccc34)cc2[nH]1 [Compound 30, N-((6-(6-fluoro-1H-indol-3-yl)-1H-benzo[d]imidazol-2-yl)methyl)acetamide]	896		
CS(=O)(=O)NCCc1nc2ccc(-c3c[nH]c4cc(F)ccc34)cc2[nH]1 [Compound 37, N-(2-(6-(6-fluoro-1H-indol-3-yl)-1H-benzo[d]imidazol-2-yl)ethyl)methanesulfonamide]	1530		
O=c1[nH]c2ccc(-c3c[nH]c4cc(F)ccc34)cc2[nH]1 [Compound 65, 5-(6-fluoro-1H-indol-3-yl)-1H-benzo[d]imidazol-2(3H)-one]	109	335	
Fc1ccc2c(-c3ccc4nc(C5CCNCC5)[nH]c4c3)c[nH]c2c1 [Compound 39, 6-(6-fluoro-1H-indol-3-yl)-2-(piperidin-4-yl)-1H-benzo[d]imidazole]	2860		
CS(=O)(=O)N1CCC(c2nc3ccc(-c4c[nH]c5cc(F)ccc45)cc3[nH]2)CC1 [Compound 40, 6-(6-fluoro-1H-indol-3-yl)-2-(1-(methylsulfonyl)piperidin-4-yl)-1H-benzo[d]imidazole]	750		

— US20150266857A1, “NOVEL 3-INDOL SUBSTITUTED DERIVATIVES, PHARMACEUTICAL COMPOSITIONS AND METHODS FOR USE” (iTeos Therapeutics, priority 2014, published 2015)
